Laboratory results reported in PMC9524145, “Open channel block of Kv1.5 channels by HMQ1611” (Frontiers in Pharmacology, 2022).

Assays:
Assay type in all cases: cell-based
[1] = target: T1, wild-type (WT) hKv1.5 (KCNA5) channel (Homo sapiens, UniProt P22460); assay: whole-cell patch-clamp of wild-type hKv1.5 current in transfected CHO cells
T1 construct: Full-length cDNA encoding wild-type (WT) hKv1.5 (KCNA5) subcloned into the pcDNA3.1 expression vector; expressed in transfected cells; host or cells: CHO cells, transient transfection (pcDNA3.1), GFP cDNA co-transfected as a separate marker
T1 sequence (P22460 whole entry): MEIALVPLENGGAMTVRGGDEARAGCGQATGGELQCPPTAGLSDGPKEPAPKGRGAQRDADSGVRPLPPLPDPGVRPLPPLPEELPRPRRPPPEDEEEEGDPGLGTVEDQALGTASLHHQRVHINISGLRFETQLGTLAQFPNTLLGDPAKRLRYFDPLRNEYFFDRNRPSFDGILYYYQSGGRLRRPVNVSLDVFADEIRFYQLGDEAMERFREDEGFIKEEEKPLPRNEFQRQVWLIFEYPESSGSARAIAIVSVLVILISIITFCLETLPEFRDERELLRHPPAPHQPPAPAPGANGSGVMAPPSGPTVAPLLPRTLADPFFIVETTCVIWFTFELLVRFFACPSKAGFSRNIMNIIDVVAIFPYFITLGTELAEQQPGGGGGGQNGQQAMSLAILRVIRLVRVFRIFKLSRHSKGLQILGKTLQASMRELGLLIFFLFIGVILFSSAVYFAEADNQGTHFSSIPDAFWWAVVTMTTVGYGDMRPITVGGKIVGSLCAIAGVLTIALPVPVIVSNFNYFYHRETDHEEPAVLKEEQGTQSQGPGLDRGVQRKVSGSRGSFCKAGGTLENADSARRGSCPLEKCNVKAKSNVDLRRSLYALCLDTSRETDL
Procedure: Chinese hamster ovary (CHO) cells donated by Dr. Takeru Makiyama (Kyoto University Graduate School of Medicine, Japan) were cultured in Dulbecco’s modified Eagle’s medium/Ham’s F-12 (DMEM/F-12) medium supplemented with 10% fetal bovine serum and antibiotics (100 IU/ml penicillin and 100 μg/ml streptomycin) in a humidified atmosphere with 5% CO2 and 95% air at 37°C. Cells were passaged every 3–4 days with trypsin–EDTA, and a portion of the cells was seeded onto glass cover slips (5 × 3 mm^2) for subsequent transfection.
(§1) Full-length cDNA encoding wild-type (WT) hKv1.5 (KCNA5) subcloned into the pcDNA3.1 expression vector was kindly provided by Dr. David Fedida (University of British Columbia, Canada). All hKv1.5 mutants (T462C, H463C, T479A, T480A, R487V, A501V, I502A, V505A, I508A, A509G, L510A, V512A, and V516A cDNAs) were constructed using a QuickChange II XL site-directed mutagenesis kit according to the manufacturer’s instructions (Stratagene, La Jolla, CA, USA) and subcloned into the pcDNA3.1. All mutants were fully sequenced (ABI3100x; Applied Biosystems, Foster City, CA, USA) to ensure fidelity.
(§2) WT or mutant hKv1.5 cDNA was transiently transfected into CHO cells together with green fluorescent protein (GFP) cDNA (0.5 μg WT or mutant hKv1.5 + 0.5 μg GFP) using Lipofectamine (Invitrogen Life Technologies, Carlsbad, CA, USA). Patch-clamp experiments were conducted on GFP-positive cells 48 h after transfection.
(§3) Kv1.5 currents were recorded using an EPC-8 patch-clamp amplifier (HEKA, Lambrecht, Germany) at 25°C. The data were low-pass filtered at 1 kHz, acquired at 5 kHz through an LIH-1600 analogue-to-digital converter (HEKA), and stored on a hard disc drive using Pulse/PulseFit software (HEKA). For experiments to measure the activation time course of hKv1.5 currents, the data were low-pass filtered at 10 kHz and sampled at 50 kHz. […] Cells attached to glass cover slips were transferred to a recording chamber (0.5 ml in volume) mounted on the stage of an inverted microscope (ECLIPSE TE2000-U, Nikon, Tokyo, Japan) and perfused continuously with Tyrode solution at a flow rate of 1 ml/min.
hKv1.5 channel currents were elicited by applying 300 ms depolarizing steps from a holding potential of -80 mV to various levels of -50 mV to +50 mV in 10 mV steps with a return potential of -40 mV, and each stimulus interval was longer than 10 s. Voltage-dependent activation of hKv1.5 channels was assessed by fitting the normalized I–V relations of the tail currents to a Boltzmann equation: Itail=1/(1+exp((V1/2−Vm)/k)), (1) where I tail is the tail current amplitude normalized with reference to the maximum value measured at +50 mV, V 1/2 is the voltage at half-maximal activation, V m is the test potential, and k is the slope factor.
The concentration–response curve for inhibition of hKv1.5 current by HMQ1611 was drawn by a least-squares fit of the Hill equation: %Control=1/(1+(IC50/[D])^nH), (2) where % Control represents the current in presence of the drug normalized with reference to the control amplitude (expressed as a percentage), IC50 is the concentration of HMQ1611 causing a half-maximal inhibition, nH is the Hill coefficient, and [D] is the drug concentration.
The apparent rate constants for binding (k +1) and unbinding (k -1) were obtained by fitting the equation: τD=1/(k+1[D]+k−1), (3) where τD is the drug-induced time constant, which was calculated from single exponential fits to the traces of current decay during the depolarizing step to +30 mV.
The apparent dissociation constant K D is expressed as kD=k−1/k+1. (4)
Deactivation kinetics of hKv1.5 were determined by fitting a single exponential function to the tail current trace (obtained by depolarizing a cell to +30 mV for 300 ms, followed by a repolarizing pulse to -40 mV).
Normal Tyrode solution contained 140 mM NaCl, 5.4 mM KCl, 1.8 mM CaCl2, 0.5 mM MgCl2, 0.33 mM NaH2PO4, 5.5 mM glucose, and 5.0 mM HEPES (pH adjusted to 7.4 with NaOH). […]

[2] = target: T2, hKv1.5 T479A mutant channel (Homo sapiens, UniProt P22460, T479A); assay: whole-cell patch-clamp of T479A mutant hKv1.5 current in CHO cells; details: 5 μM HMQ1611, late current at +30 mV, n = 8, p < 0.01 vs. WT
T2 construct: Full-length cDNA encoding wild-type (WT) hKv1.5 (KCNA5) subcloned into the pcDNA3.1 expression vector; expressed in transfected cells; host or cells: CHO cells, transient transfection (pcDNA3.1), GFP cDNA co-transfected as a separate marker
T2 sequence (P22460 whole entry T479A): as the sequence (P22460 whole entry) above, with T479A counted along it
From the text: as §1
(§4) WT or mutant hKv1.5 cDNA was transiently transfected into CHO cells together with green fluorescent protein (GFP) cDNA (0.5 μg WT or mutant hKv1.5 + 0.5 μg GFP) using Lipofectamine (Invitrogen Life Technologies, Carlsbad, CA, USA). […]
(§5) Kv1.5 currents were recorded using an EPC-8 patch-clamp amplifier (HEKA, Lambrecht, Germany) at 25°C. […]
(§6) The concentration–response curve for inhibition of hKv1.5 current by HMQ1611 was drawn by a least-squares fit of the Hill equation: %Control=1/(1+(IC50/[D])^nH), (2) where % Control represents the current in presence of the drug normalized with reference to the control amplitude (expressed as a percentage), IC50 is the concentration of HMQ1611 causing a half-maximal inhibition, nH is the Hill coefficient, and [D] is the drug concentration. […]

[3] = target: T3, hKv1.5 T480A mutant channel (Homo sapiens, UniProt P22460, T480A); assay: whole-cell patch-clamp of T480A mutant hKv1.5 current in CHO cells
T3 construct: Full-length cDNA encoding wild-type (WT) hKv1.5 (KCNA5) subcloned into the pcDNA3.1 expression vector; expressed in transfected cells; host or cells: CHO cells, transient transfection (pcDNA3.1), GFP cDNA co-transfected as a separate marker
T3 sequence (P22460 whole entry T480A): as the sequence (P22460 whole entry) above, with T480A counted along it
From the text: as §1, §4, §5, §6

[4] = target: T4, hKv1.5 I508A mutant channel (Homo sapiens, UniProt P22460, I508A); assay: whole-cell patch-clamp of I508A mutant hKv1.5 current in CHO cells
T4 construct: Full-length cDNA encoding wild-type (WT) hKv1.5 (KCNA5) subcloned into the pcDNA3.1 expression vector; expressed in transfected cells; host or cells: CHO cells, transient transfection (pcDNA3.1), GFP cDNA co-transfected as a separate marker
T4 sequence (P22460 whole entry I508A): as the sequence (P22460 whole entry) above, with I508A counted along it
From the text: as §1, §2, §3, §6

[5] = target: T5, hKv1.5 V505A mutant channel (Homo sapiens, UniProt P22460, V505A); assay: whole-cell patch-clamp of V505A mutant hKv1.5 current in CHO cells
T5 construct: Full-length cDNA encoding wild-type (WT) hKv1.5 (KCNA5) subcloned into the pcDNA3.1 expression vector; expressed in transfected cells; host or cells: CHO cells, transient transfection (pcDNA3.1), GFP cDNA co-transfected as a separate marker
T5 sequence (P22460 whole entry V505A): as the sequence (P22460 whole entry) above, with V505A counted along it
From the text: as §1, §2, §3, §6

[6] = target: T6, hKv1.5 V516A mutant channel (Homo sapiens, UniProt P22460, V516A); assay: whole-cell patch-clamp of V516A mutant hKv1.5 current in CHO cells
T6 construct: Full-length cDNA encoding wild-type (WT) hKv1.5 (KCNA5) subcloned into the pcDNA3.1 expression vector; expressed in transfected cells; host or cells: CHO cells, transient transfection (pcDNA3.1), GFP cDNA co-transfected as a separate marker
T6 sequence (P22460 whole entry V516A): as the sequence (P22460 whole entry) above, with V516A counted along it
From the text: as §1, §4, §5, §6

[7] = target: T7, hKv1.5 L510A mutant channel (Homo sapiens, UniProt P22460, L510A); assay: whole-cell patch-clamp of L510A mutant hKv1.5 current in CHO cells; details: 5 μM HMQ1611, late current at +30 mV, n = 6, p < 0.01 vs. WT
T7 construct: Full-length cDNA encoding wild-type (WT) hKv1.5 (KCNA5) subcloned into the pcDNA3.1 expression vector; expressed in transfected cells; host or cells: CHO cells, transient transfection (pcDNA3.1), GFP cDNA co-transfected as a separate marker
T7 sequence (P22460 whole entry L510A): as the sequence (P22460 whole entry) above, with L510A counted along it
From the text: as §1, §4, §5, §6

[8] = target: T8, hKv1.5 V512A mutant channel (Homo sapiens, UniProt P22460, V512A); assay: whole-cell patch-clamp of V512A mutant hKv1.5 current in CHO cells; details: 5 μM HMQ1611, late current at +30 mV, n = 6, p < 0.01 vs. WT
T8 construct: Full-length cDNA encoding wild-type (WT) hKv1.5 (KCNA5) subcloned into the pcDNA3.1 expression vector; expressed in transfected cells; host or cells: CHO cells, transient transfection (pcDNA3.1), GFP cDNA co-transfected as a separate marker
T8 sequence (P22460 whole entry V512A): as the sequence (P22460 whole entry) above, with V512A counted along it
From the text: as §1, §4, §5, §6

[9] = from τD of current decay at +30 mV vs drug concentration

CNC(=O)c1ccc(OC)c(OCC(=O)Nc2ccc(F)c(Cl)c2)c1-c1c(C(=O)NC)ccc(OC)c1OCC(=O)Nc1ccc(F)c(Cl)c1 [HMQ1611]
time to start of inhibition on exposure ([1]; 5 μM HMQ1611): 5 to 10 s
time to steady state inhibition ([1]; 5 μM HMQ1611): ≤ 3 min
peak current amplitude at the first depolarizing step ([1]; 5 μM HMQ1611, 1 Hz train, control 6.11 ± 0.99 nA, n = 7, p > 0.05): 5.97 ± 0.98 nA
decrease of peak amplitude of hKv1.5 current at the 20th pulse vs first pulse ([1]; 5 μM HMQ1611, 1 Hz, control 18.29 ± 2.20%, n = 7): 46.57 ± 4.19%
peak current amplitude at the first depolarizing step ([1]; 5 μM HMQ1611, 2 Hz train, control 5.82 ± 1.14 nA, n = 6, p > 0.05): 5.67 ± 0.99 nA
decrease of peak amplitude of hKv1.5 current at the 20th pulse vs first pulse ([1]; 5 μM HMQ1611, 2 Hz, control 32.73 ± 1.74%, n = 6): 66.47 ± 2.38%
steady state level of inhibition of hKv1.5 current ([1]; 5 μM HMQ1611, representative time course, end of 300 ms step to +30 mV, within 3 min): approximately 86 % inhibition
activation time constant ([1]; 5 μM HMQ1611, step to +30 mV, control 1.50 ± 0.25 ms, n = 7, p > 0.05): 1.47 ± 0.18 ms
inhibition at 5 µM ([1]; CHO, WT, 5 μM HMQ1611, late current at end of 300 ms step to +30 mV, n = 7): 83.9 ± 4.06%
IC50 ([1]; WT, late current at end of 300 ms depolarizing step to +30 mV, CHO cells, Hill fit, n = 7, read-out: IC50 for inhibition of hKv1.5 current): 2.07 ± 0.21 µM
recovery of hKv1.5 current after washout ([1]; after 5 μM HMQ1611, within 10 min after washout with normal Tyrode solution): 94.64 % of the control value
Kd ([1]; apparent dissociation constant, +30 mV, read-out: KD value derived by (k-1)/(k+1)): 4.48 µM
slope factor k of Boltzmann activation fit ([1]; during exposure to 5 μM HMQ1611, control 14.09, 6 cells, p < 0.01 vs. control): 1.34
V1/2 (voltage at half-maximal activation, tail currents) ([1]; during exposure to 5 μM HMQ1611, control -0.76 mV, 6 cells, p < 0.01 vs. control): -29.9 mV
apparent binding rate constant (k+1) [1, 9]: 6.65e+06 M⁻¹ s⁻¹
apparent unbinding rate constant (k-1) [1, 9]: 29.9 s⁻¹
deactivation time constant ([1]; in presence of 5 μM HMQ1611, tail current at -40 mV after +30 mV, control 14.8 ± 1.4 ms, n = 10, p > 0.05): 13.1 ± 2.3 ms
effect of intracellular dialysis on Kv1.5 currents ([1]; intracellular dialysis of cells with 5 μM HMQ1611 for 4 min after whole-cell configuration): did not change the Kv1.5 currents
inhibition at 5 µM [2]: 51.1 ± 4.99%
inhibition at 5 µM ([3]; CHO, T480A, 5 μM HMQ1611, late current at +30 mV, n = 7, p < 0.01 vs. WT): 15.3 ± 2.5%
fold decrease in blocking potency compared with IC50 of WT channel ([3]; T480A vs WT): 7 fold
inhibition at 5 µM ([4]; CHO, I508A, 5 μM HMQ1611, late current at +30 mV, n = 7, p < 0.01 vs. WT): 16.2 ± 2.09%
fold decrease in blocking potency compared with IC50 of WT channel ([4]; I508A vs WT): 5 fold
IC50 ([4]; I508A, Hill fit, n = 7): 10.5 ± 0.41 µM
inhibition at 5 µM ([5]; CHO, V505A, 5 μM HMQ1611, late current at +30 mV, n = 7, p < 0.01 vs. WT): 44 ± 4.4%
fold decrease in blocking potency compared with IC50 of WT channel ([5]; V505A vs WT): 3 fold
IC50 ([5]; V505A, Hill fit, n = 7): 6.44 ± 0.18 µM
inhibition at 5 µM ([6]; CHO, V516A, 5 μM HMQ1611, late current at +30 mV, n = 6, p < 0.01 vs. WT): 44.6 ± 5.48%
fold decrease in blocking potency compared with IC50 of WT channel ([6]; V516A vs WT): 4 fold
inhibition at 5 µM [7]: 11.2 ± 2.24%
inhibition at 5 µM [8]: 47.2 ± 3.86%
